Source: ChEMBL document CHEMBL4507329, “Data for DCP probe BTZO-1” (2021)

Tests used:
[1] = target: Serine/threonine-protein kinase DCLK2 (Homo sapiens) (UniProt Q8N568); details: Compound concentration 1000.0 nM
[2] = target: Serine/threonine-protein kinase Nek4 (Homo sapiens) (UniProt P51957); details: Compound concentration 1000.0 nM
[3] = target: Bone morphogenetic protein receptor type-1A (Homo sapiens) (UniProt P36894); details: Compound concentration 1000.0 nM
[4] = target: Interferon-induced, double-stranded RNA-activated protein kinase (Homo sapiens) (UniProt P19525); details: Compound concentration 1000.0 nM
[5] = target: Mitogen-activated protein kinase 14 (Homo sapiens) (UniProt Q16539); details: Compound concentration 1000.0 nM
[6] = test system: Tyrosine-protein kinase ABL1 (Homo sapiens), P00519 [F317L]; details: Compound concentration 1000.0 nM
[7] = target: Calcium/calmodulin-dependent protein kinase kinase 1 (Homo sapiens) (UniProt Q8N5S9); details: Compound concentration 1000.0 nM
[8] = target: Leukocyte tyrosine kinase receptor (Homo sapiens) (UniProt P29376); details: Compound concentration 1000.0 nM
[9] = test system: Phosphatidylinositol 4,5-bisphosphate 3-kinase catalytic subunit alpha isoform (Homo sapiens), P42336 [M1043I]; details: Compound concentration 1000.0 nM
Chain of Phosphatidylinositol 4,5-bisphosphate 3-kinase catalytic subunit alpha isoform (Homo sapiens), P42336 [M1043I] (P42336 whole entry M1043I, canonical isoform): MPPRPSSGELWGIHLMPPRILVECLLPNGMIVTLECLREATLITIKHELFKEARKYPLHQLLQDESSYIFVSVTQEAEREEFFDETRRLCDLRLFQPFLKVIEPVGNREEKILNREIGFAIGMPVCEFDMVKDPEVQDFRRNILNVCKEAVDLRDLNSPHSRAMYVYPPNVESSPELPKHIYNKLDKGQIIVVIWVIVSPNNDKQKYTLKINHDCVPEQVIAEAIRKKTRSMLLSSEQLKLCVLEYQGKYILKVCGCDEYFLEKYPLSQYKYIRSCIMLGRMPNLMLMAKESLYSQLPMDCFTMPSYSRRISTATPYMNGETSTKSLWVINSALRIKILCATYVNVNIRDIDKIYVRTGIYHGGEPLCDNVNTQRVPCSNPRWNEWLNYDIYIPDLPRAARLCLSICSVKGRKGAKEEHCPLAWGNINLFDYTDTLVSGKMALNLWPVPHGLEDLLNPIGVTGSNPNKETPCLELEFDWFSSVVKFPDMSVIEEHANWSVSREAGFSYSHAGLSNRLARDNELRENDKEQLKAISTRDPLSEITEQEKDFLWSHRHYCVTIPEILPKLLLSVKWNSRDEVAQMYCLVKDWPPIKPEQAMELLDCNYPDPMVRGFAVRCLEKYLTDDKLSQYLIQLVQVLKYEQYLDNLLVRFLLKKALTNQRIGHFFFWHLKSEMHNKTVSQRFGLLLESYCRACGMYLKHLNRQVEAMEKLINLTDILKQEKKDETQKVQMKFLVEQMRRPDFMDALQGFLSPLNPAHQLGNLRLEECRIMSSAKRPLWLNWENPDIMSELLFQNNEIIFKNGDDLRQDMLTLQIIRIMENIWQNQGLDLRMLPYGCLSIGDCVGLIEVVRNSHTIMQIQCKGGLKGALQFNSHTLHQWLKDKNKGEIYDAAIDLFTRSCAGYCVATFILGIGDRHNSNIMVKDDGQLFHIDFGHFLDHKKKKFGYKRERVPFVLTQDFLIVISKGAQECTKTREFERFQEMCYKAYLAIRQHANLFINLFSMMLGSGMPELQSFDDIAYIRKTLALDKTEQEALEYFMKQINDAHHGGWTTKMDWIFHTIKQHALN

[10] = target: Mitogen-activated protein kinase 13 (Homo sapiens) (UniProt O15264); details: Compound concentration 1000.0 nM
[11] = target: Serine/threonine-protein kinase WNK1 (Homo sapiens) (UniProt Q9H4A3); details: Compound concentration 1000.0 nM
[12] = target: Serine/threonine-protein kinase pim-2 (Homo sapiens) (UniProt Q9P1W9); details: Compound concentration 1000.0 nM
[13] = target: Mitogen-activated protein kinase kinase kinase 15 (Homo sapiens) (UniProt Q6ZN16); details: Compound concentration 1000.0 nM
[14] = target: Mitogen-activated protein kinase kinase kinase 14 (Homo sapiens) (UniProt Q99558); details: Compound concentration 1000.0 nM
Chain of Mitogen-activated protein kinase kinase kinase 14 (Homo sapiens) (Q99558 whole entry, looked up): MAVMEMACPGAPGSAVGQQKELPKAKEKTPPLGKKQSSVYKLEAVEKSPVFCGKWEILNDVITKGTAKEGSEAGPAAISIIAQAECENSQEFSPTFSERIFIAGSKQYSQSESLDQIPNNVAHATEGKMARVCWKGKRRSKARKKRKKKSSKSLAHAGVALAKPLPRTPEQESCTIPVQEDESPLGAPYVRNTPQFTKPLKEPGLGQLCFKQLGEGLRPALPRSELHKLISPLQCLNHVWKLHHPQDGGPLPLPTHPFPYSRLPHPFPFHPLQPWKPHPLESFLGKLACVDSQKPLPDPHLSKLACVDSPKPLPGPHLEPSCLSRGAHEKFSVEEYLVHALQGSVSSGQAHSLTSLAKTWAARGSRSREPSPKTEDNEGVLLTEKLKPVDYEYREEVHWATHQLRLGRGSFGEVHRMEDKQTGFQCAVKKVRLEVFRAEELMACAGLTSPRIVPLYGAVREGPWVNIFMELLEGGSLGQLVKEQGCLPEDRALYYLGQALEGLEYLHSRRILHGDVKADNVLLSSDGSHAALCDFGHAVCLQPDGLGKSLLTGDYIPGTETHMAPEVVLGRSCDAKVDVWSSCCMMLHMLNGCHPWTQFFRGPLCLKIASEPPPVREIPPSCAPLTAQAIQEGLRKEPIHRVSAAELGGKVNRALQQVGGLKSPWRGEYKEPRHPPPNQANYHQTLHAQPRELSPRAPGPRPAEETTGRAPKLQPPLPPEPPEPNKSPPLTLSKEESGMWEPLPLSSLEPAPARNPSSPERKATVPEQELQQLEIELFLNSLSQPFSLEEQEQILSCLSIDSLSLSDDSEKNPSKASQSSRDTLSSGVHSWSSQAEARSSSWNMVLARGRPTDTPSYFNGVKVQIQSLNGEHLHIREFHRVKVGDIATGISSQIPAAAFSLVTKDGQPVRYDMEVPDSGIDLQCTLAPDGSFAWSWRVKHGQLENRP

[15] = target: Serine/threonine-protein kinase pim-3 (Homo sapiens) (UniProt Q86V86); details: Compound concentration 1000.0 nM
[16] = test system: Leucine-rich repeat serine/threonine-protein kinase 2 (Homo sapiens), Q5S007 [G2019S]; details: Compound concentration 1000.0 nM
[17] = target: Muscarinic acetylcholine receptor M5 (Homo sapiens) (UniProt P08912); details: Compound concentration 10.0 uM
[18] = target: Phosphatidylinositol 4,5-bisphosphate 3-kinase catalytic subunit gamma isoform (Homo sapiens) (UniProt P48736); details: Compound concentration 1000.0 nM
[19] = target: Serine/threonine-protein kinase ULK3 (Homo sapiens) (UniProt Q6PHR2); details: Compound concentration 1000.0 nM
[20] = target: Myosin light chain kinase (Homo sapiens) (UniProt Q32MK0); details: Compound concentration 1000.0 nM
[21] = test system: Proto-oncogene tyrosine-protein kinase receptor Ret (Homo sapiens), P07949 [V804L]; details: Compound concentration 1000.0 nM
[22] = target: Serine/threonine-protein kinase haspin (Homo sapiens) (UniProt Q8TF76); details: Compound concentration 1000.0 nM
[23] = target: Mast/stem cell growth factor receptor Kit (Homo sapiens) (UniProt P10721); details: Compound concentration 1000.0 nM
Chain of Mast/stem cell growth factor receptor Kit (Homo sapiens) (P10721 whole entry): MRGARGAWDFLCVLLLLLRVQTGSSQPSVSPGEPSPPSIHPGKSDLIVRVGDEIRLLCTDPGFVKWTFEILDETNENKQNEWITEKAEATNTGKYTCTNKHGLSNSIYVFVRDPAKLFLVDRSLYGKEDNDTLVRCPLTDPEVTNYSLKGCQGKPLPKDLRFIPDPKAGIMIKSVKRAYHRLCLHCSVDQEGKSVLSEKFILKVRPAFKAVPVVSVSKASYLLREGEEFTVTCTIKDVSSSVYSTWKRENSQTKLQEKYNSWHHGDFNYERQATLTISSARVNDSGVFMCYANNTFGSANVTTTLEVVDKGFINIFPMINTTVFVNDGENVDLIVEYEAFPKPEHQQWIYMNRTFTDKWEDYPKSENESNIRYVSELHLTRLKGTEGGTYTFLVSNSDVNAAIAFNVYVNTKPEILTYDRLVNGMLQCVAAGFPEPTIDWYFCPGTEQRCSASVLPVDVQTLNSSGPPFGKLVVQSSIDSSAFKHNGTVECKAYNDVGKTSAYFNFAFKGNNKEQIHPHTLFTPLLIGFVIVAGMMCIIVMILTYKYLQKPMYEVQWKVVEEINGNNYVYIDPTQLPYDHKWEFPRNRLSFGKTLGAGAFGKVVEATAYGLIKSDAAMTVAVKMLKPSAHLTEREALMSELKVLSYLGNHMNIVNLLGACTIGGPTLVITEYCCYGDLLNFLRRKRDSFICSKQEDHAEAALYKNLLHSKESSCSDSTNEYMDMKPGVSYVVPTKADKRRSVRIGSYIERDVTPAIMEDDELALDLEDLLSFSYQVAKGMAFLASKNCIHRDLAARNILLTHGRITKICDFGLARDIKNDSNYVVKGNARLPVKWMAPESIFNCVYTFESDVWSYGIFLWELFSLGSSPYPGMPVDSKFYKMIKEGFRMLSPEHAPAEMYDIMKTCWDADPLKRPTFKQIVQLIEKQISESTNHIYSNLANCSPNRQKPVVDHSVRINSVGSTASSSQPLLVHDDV

[24] = target: Activin receptor type-1B (Homo sapiens) (UniProt P36896); details: Compound concentration 1000.0 nM
[25] = test system: Epidermal growth factor receptor (Homo sapiens), P00533 [UNDEFINED MUTATION]; details: Compound concentration 1000.0 nM
Chain of Epidermal growth factor receptor (Homo sapiens), P00533 [UNDEFINED MUTATION] (P00533 whole entry, looked up, change not shown): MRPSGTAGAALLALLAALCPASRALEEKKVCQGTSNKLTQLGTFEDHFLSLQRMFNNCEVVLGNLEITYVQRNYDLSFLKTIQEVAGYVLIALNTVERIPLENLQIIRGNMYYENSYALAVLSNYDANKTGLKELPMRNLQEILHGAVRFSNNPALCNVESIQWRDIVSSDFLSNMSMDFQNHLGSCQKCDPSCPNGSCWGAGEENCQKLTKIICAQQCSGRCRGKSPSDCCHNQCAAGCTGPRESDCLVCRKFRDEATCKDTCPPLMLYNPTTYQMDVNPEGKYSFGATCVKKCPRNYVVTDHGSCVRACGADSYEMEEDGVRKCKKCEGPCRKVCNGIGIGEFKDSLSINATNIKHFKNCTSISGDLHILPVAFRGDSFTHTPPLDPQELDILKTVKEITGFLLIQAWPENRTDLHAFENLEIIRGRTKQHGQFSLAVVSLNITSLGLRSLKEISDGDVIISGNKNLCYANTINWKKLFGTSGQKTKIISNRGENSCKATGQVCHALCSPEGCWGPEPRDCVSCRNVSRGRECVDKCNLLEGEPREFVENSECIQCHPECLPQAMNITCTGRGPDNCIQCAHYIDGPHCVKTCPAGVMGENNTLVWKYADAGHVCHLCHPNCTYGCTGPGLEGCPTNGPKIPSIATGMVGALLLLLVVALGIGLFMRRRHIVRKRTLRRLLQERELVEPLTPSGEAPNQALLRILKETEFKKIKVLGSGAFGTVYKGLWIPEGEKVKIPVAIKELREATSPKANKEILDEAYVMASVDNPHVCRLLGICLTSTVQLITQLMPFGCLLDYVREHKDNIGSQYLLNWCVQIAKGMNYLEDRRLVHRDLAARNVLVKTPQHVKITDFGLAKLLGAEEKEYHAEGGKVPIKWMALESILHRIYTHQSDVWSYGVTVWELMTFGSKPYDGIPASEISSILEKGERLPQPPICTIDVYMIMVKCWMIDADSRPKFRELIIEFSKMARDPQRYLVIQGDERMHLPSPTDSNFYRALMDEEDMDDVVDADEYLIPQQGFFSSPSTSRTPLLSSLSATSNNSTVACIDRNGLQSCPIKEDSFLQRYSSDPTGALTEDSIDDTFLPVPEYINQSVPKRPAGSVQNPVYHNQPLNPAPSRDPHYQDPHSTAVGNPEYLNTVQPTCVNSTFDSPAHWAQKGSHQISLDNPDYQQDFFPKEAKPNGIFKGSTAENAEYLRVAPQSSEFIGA

[26] = target: Platelet-derived growth factor receptor beta (Homo sapiens) (UniProt P09619); details: Compound concentration 1000.0 nM
[27] = test system: Phosphatidylinositol 4,5-bisphosphate 3-kinase catalytic subunit alpha isoform (Homo sapiens), P42336 [H1047L]; details: Compound concentration 1000.0 nM
Chain of Phosphatidylinositol 4,5-bisphosphate 3-kinase catalytic subunit alpha isoform (Homo sapiens), P42336 [H1047L] (P42336 whole entry H1047L, canonical isoform): as the sequence (P42336 whole entry M1043I, canonical isoform) above, with I1043M, H1047L counted along it

[28] = target: Cyclin-G-associated kinase (Homo sapiens) (UniProt O14976); details: Compound concentration 1000.0 nM
[29] = target: Cyclin-dependent kinase 11A (Homo sapiens) (UniProt Q9UQ88); details: Compound concentration 1000.0 nM
[30] = target: Histamine H3 receptor (Homo sapiens) (UniProt Q9Y5N1); details: Compound concentration 10.0 uM
[31] = target: BMP-2-inducible protein kinase (Homo sapiens) (UniProt Q9NSY1); details: Compound concentration 1000.0 nM
[32] = target: Tyrosine-protein kinase ABL2 (Homo sapiens) (UniProt P42684); details: Compound concentration 1000.0 nM
[33] = target: Serine/threonine-protein kinase WNK3 (Homo sapiens) (UniProt Q9BYP7); details: Compound concentration 1000.0 nM
[34] = target: Interleukin-1 receptor-associated kinase 1 (Homo sapiens) (UniProt P51617); details: Compound concentration 1000.0 nM
[35] = target: Serine/threonine-protein kinase TBK1 (Homo sapiens) (UniProt Q9UHD2); details: Compound concentration 1000.0 nM
[36] = target: Interleukin-1 receptor-associated kinase 3 (Homo sapiens) (UniProt Q9Y616); details: Compound concentration 1000.0 nM
[37] = target: Serine/threonine-protein kinase Nek10 (Homo sapiens) (UniProt Q6ZWH5); details: Compound concentration 1000.0 nM
[38] = target: Rhodopsin kinase GRK1 (Homo sapiens) (UniProt Q15835); details: Compound concentration 1000.0 nM
[39] = target: Dual specificity protein kinase CLK1 (Homo sapiens) (UniProt P49759); details: Compound concentration 1000.0 nM
[40] = test system: Epidermal growth factor receptor (Homo sapiens), P00533 [UNDEFINED MUTATION]; details: Compound concentration 1000.0 nM; remark: listed apart in the source
[41] = target: Mitogen-activated protein kinase kinase kinase 3 (Homo sapiens) (UniProt Q99759); details: Compound concentration 1000.0 nM
[42] = test system: Receptor-type tyrosine-protein kinase FLT3 (Homo sapiens), P36888 [D835Y]; details: Compound concentration 1000.0 nM
[43] = test system: Receptor-type tyrosine-protein kinase FLT3 (Homo sapiens), P36888 [N841I]; details: Compound concentration 1000.0 nM
[44] = target: Serine/threonine-protein kinase TAO1 (Homo sapiens) (UniProt Q7L7X3); details: Compound concentration 1000.0 nM

Chain of Serine/threonine-protein kinase DCLK2 (Homo sapiens) (Q8N568 whole entry): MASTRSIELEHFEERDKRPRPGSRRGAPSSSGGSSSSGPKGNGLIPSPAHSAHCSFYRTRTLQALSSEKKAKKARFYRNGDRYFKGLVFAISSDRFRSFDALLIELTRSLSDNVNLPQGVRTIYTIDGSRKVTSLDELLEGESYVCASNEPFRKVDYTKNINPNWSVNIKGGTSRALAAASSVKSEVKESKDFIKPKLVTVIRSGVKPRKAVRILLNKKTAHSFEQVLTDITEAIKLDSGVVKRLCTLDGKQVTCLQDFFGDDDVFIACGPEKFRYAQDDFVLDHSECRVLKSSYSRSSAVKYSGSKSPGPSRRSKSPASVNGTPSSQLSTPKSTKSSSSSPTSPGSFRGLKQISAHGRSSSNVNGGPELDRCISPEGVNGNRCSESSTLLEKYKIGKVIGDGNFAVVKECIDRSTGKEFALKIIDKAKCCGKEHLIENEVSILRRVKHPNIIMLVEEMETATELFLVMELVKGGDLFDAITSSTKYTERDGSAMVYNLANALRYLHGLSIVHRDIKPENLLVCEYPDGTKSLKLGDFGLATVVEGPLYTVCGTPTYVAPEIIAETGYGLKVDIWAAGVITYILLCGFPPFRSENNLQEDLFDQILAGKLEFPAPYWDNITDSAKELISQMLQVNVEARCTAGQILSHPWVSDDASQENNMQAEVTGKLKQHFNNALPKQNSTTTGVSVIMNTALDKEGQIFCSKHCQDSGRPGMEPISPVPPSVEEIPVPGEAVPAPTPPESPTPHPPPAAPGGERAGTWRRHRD

O=c1nc(-c2ccccn2)sc2ccccc12 [BTZO-1]
inactive: residual activity [1] 97% | residual activity [2] 91% | residual activity [3] 100% | residual activity [4] 100% | residual activity [5] 94% | residual activity [6] 100% | residual activity [7] 96% | residual activity [8] 99% | residual activity [9] 100% | residual activity [10] 99% | residual activity [11] 100% | residual activity [12] 97% | residual activity [13] 100% | residual activity [14] 100% | residual activity [15] 100% | residual activity [16] 92% | inhibition [17] -7.5% | residual activity [18] 100% | residual activity [19] 100% | residual activity [20] 100% | residual activity [21] 70% | residual activity [22] 100% | residual activity [23] 79% | residual activity [24] 100% | residual activity [25] 100% | residual activity [26] 83% | residual activity [27] 76% | residual activity [28] 97% | residual activity [29] 94% | inhibition [30] 2% | residual activity [31] 86% | residual activity [32] 87% | residual activity [33] 100% | residual activity [34] 100% | residual activity [35] 91% | residual activity [36] 82% | residual activity [37] 100% | residual activity [38] 76% | residual activity [39] 99% | residual activity [40] 70% | residual activity [41] 77% | residual activity [42] 100% | residual activity [43] 74% | residual activity [44] 92%

O=C1NC(c2ccccn2)Sc2ccccc21 (stereo not drawn) [BTZO-4]
inactive: residual activity [1] 92% | residual activity [2] 58% | residual activity [3] 100% | residual activity [4] 91% | residual activity [5] 81% | residual activity [6] 100% | residual activity [7] 88% | residual activity [8] 89% | residual activity [9] 74% | residual activity [10] 100% | residual activity [11] 91% | residual activity [12] 88% | residual activity [13] 85% | residual activity [14] 92% | residual activity [15] 100% | residual activity [16] 81% | inhibition [17] 0.557% | residual activity [18] 91% | residual activity [19] 100% | residual activity [20] 100% | residual activity [21] 69% | residual activity [22] 100% | residual activity [23] 89% | residual activity [24] 99% | residual activity [25] 100% | residual activity [26] 83% | residual activity [27] 59% | residual activity [28] 100% | residual activity [29] 100% | inhibition [30] 8.1% | residual activity [31] 88% | residual activity [32] 85% | residual activity [33] 100% | residual activity [34] 96% | residual activity [35] 87% | residual activity [36] 87% | residual activity [37] 100% | residual activity [38] 81% | residual activity [39] 98% | residual activity [40] 86% | residual activity [41] 93% | residual activity [42] 86% | residual activity [43] 60% | residual activity [44] 96%
